These results are taken from patent US9290537B2, “Method for cross-linking peptides” (UNIVERSITEIT GENT, priority 2010, dated 2016).

The target of test [1] is T1, wild type pyrrolysyl-tRNA synthetase of M. mazei (Methanosarcina mazei, UniProt Q8PWY1).
T1 construct: expressed in transfected cells
Description: Incorporation of furan amino acid in Yellow Fluorescent Protein in E. coli, wild type synthetase. Format: cell-based. The following applies: 0, 2, 5 and 10 mM in T7 Express E. coli cultures; YFP fluorescence. As for the experimental part: (§1) The incorporation of unnatural furan amino acids by the pyrrolysyl-tRNA synthetase and its tRNA-CUA in Yellow Fluorescent Protein (YFP) can be easily evaluated by monitoring its fluorescence with confocal microscopy. Without incorporation of the furan amino acid at the amber codon position a truncated non-fluorescent protein was obtained, therefore the obtained fluorescence intensity paralleled the incorporation efficiency. The incorporation of the furan amino acids was tested with the tRNA-CUA of Methanosarcina mazei (M. mazei) and with the wild type pyrrolysyl-tRNA synthetase of M. mazei and the Tyr384Phe-Tyr306Ala variant of the pyrrolysyl-tRNA synthetase of M. mazei (Yanagisawa et al., Chemistry & Biology, 2008, 15, 1187-1197).
(§2) The furan amino acid of Formula (XId) or the furan amino acid of Formula (XIc) was added in a concentration of 0, 2, 5 and 10 mM to 5 ml cell cultures of T7 Express Competent E. coli (from New England BioLabs) transformed with a pET-Duet-1 plasmid (Novagen) containing the genes for the pyrrolysine tRNA-synthetase, 3 copies of the tRNA-CUA and the mutated YFP, in LB medium with the appropriate antibiotic.

The target in test [2] is T2, Tyr384Phe-Tyr306Ala variant of the pyrrolysyl-tRNA synthetase of M. mazei (Methanosarcina mazei, UniProt Q8PWY1, Y306A/Y384F).
T2 construct: expressed in transfected cells
The experiment in a line: Incorporation of furan amino acid in Yellow Fluorescent Protein in E. coli, mutated synthetase. It is filed as cell-based. The following applies: for incorporation in YFP by the mutated pyrrolysine tRNA-synthetase: 0, 2, 5 and 10 mM in T7 Express E. coli cultures, YFP fluorescence. On the procedure:
as §1, §2

The target in test [3] is T3, streptavidin (Streptomyces avidinii, UniProt P22629). Description: Cross-linking free furan-StrepTagII peptides with streptavidin (furan-oxidation, NBS, MALDI-TOF). The following applies: for peptide cross-linking with streptavidin: ten equivalents peptide, 60 min 37° C., one equivalent NBS per peptide, 2 hours 10° C., NaCNBH3. It is filed as binding. From the text:
In order to show the cross-link between peptides, an in vitro model system based on the interaction between the StrepTagII and streptavidin was used. The first available Strep-Tag (AWRHPQFGG; SEQ ID NO: 19) able to bind streptavidin could only be attached to the C-terminus of a protein. By changing the sequence of the Strep-Tag, a StrepTagII was developed that can be both N-terminally and C-terminally modified without losing its affinity for streptavidin. Because the intermolecular interactions between the StrepTagII and streptavidin are well characterized, StrepTagII-streptavidin is an excellent model for testing cross-linking.
The free N-terminal and C-terminal furan-StrepTagII peptides 5.2 and 5.3, obtained as described in Example 1, were used to test cross-linking with streptavidin using the furan-oxidation method.
Ten equivalents of the furan-peptides 5.2 or 5.3 were mixed with streptavidin and incubated during 60 min at 37° C. One equivalent of NBS per equivalent of peptide was added as an activation signal and the reaction mixture was incubated during 2 hours at 10° C. with shaking. […] The cross-link between the N-terminal furan-StrepTagII peptide 5.2 and streptavidin was less explicit than the cross-link between the C-terminal furan-StrepTagII peptide 5.3 and streptavidin. This is however not unexpected since the N-terminus of the furan-StrepTagII peptide 5.2 is located outside of its binding site with streptavidin.

Test [4] addresses T3, streptavidin. The experiment in a line: Specific inhibition of the cross-link of free furan-StrepTagII peptides with streptavidin by biotin. To be noted: ten equivalents peptide, streptavidin and biotin, 60 min 37° C.; one equivalent NBS, 2 hours 10° C. Format: binding. As for the experimental part: In order to test the specificity of the StrepTagII-streptavidin cross-link, the experiment of Example 5 was repeated in the presence of biotin. As mentioned before, biotin binds streptavidin with high affinity and on the same binding site as the StrepTagII and can therefore act as a specific inhibitor of the cross-link.
Ten equivalents of the furan-StrepTagII peptides 5.2 or 5.3, obtained as described in Example 1, were mixed with streptavidin and biotin and incubated during 60 min at 37° C. One equivalent of NBS per equivalent of peptide was added and the reaction was performed during 2 hours at 10° C. with shaking.

For test [5], the target named is T4, wild type pyrrolysyl-tRNA synthetase and tRNA-CUA of M. mazei (Methanosarcina mazei, UniProt Q8PWY1).
T4 construct: expressed in transfected cells
Description: Incorporation of furan amino acid in thioredoxinA (TrxA), LCMS and trypsin digest. Format: cell-based. To be noted: 5 mM in 1 l cell culture; trypsin digest and peptide analysis. On the procedure:
In addition to YFP, another protein, thioredoxinA (TrxA), was chosen for providing additional proof of incorporation of a furan amino acid in a protein, through mass characterization after purification.
Experiments were performed similar as in Example 12 with wild type pyrrolysyl-tRNA synthetase and tRNA-CUA of M. mazei, with the mutated TrxA and with the furan amino acid of Formula (XIc) in a concentration of 5 mM in a 1 l cell culture. This yielded 170 μg of protein after purification over a Strep column. Accurate mass determination with full protein LCMS analysis (Orbitrap, Thermo Scientific) found a mass of 13039.7 Dalton (the calculated average mass of the furan-modified oxidized thioredoxinA without the starting methionine is 13039.95 Dalton), proving the incorporation of the furan amino acid in the protein and its stability.

The target in test [6] is T3, streptavidin. To be noted: same binding site as the StrepTagII; cited from earlier work.

T2 sequence (Q8PWY1 whole entry Y306A/Y384F): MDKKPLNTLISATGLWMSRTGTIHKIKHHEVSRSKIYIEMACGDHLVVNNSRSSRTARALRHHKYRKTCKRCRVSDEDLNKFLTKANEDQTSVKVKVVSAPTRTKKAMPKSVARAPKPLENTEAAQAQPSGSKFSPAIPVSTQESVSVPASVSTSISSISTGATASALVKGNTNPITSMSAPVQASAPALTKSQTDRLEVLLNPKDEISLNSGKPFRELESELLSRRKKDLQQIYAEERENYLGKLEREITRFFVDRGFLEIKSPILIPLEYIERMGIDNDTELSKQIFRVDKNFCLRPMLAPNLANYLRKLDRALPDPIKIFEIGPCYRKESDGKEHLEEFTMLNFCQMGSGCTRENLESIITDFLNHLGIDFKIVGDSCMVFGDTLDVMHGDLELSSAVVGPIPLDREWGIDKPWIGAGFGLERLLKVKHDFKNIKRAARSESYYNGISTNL
T3 sequence (P22629 25-183, species assumed): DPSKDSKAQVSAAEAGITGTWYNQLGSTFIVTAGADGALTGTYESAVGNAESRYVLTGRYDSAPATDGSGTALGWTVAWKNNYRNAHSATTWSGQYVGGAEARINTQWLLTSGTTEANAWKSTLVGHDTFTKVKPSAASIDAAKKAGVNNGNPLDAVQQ
T1 sequence (Q8PWY1 whole entry): as the sequence (Q8PWY1 whole entry Y306A/Y384F) above, with A306Y, F384Y counted along it
T4 sequence (Q8PWY1 whole entry): as the sequence (Q8PWY1 whole entry Y306A/Y384F) above, with A306Y, F384Y counted along it

In the case of `NC(CCCCNC(=O)NCc1ccco1)C(=O)O` (centres unmarked) [furan amino acid of Formula (XId)], the “incorporation in YFP by the wild type synthetase” value in test [1] was “did not incorporate”. The “incorporation in YFP by the mutated pyrrolysine tRNA-synthetase” value in test [2] is given as “incorporated both”.

As to “peptide 5.3: C-terminal furan-StrepTagII peptide with C-terminal (2-furyl)-alanine, N-terminally capped with 2-naphtoic acid (FIG. 9, SEQ ID NO 3) (WSHPQFEKA; N-terminal 2-naphthoyl cap; C-terminal 2-furylalanine)”, the “peptide cross-linking with streptavidin” value with streptavidin [3] is listed as “cross-linking was observed”. In addition, in the test with streptavidin [4], the “cross-link with streptavidin in the presence of biotin” value is “no cross-link”.

Consider `NC(CCCCNC(=O)c1ccco1)C(=O)O` (centres unmarked) [furan amino acid of Formula (XIc)], for which the “incorporation in YFP by the wild type synthetase” value in test [1] is recorded as “incorporated in YFP by the wild type synthetase in good yield”. Also, the “incorporation in TrxA” value in test [5] is on record as “incorporation of the furan amino acid on the correct position of TrxA”. In addition, the “incorporation in YFP by the mutated pyrrolysine tRNA-synthetase” value in test [2] was “incorporated both”. In addition, the “incorporation in YFP by the mutated synthetase, comparison” value in test [2] (compared with Formula (XId) and with wild type synthetase) was “better than the incorporation of the furan amino acid of Formula (XId), but in lower yield than with the wild type synthetase”.

As to “peptide 5.2: N-terminal furan-StrepTagII peptide with N-terminal (2-furyl)-alanine capped with 2-naphtoic acid (FIG. 8, SEQ ID NO 2) (AWSHPQFEK; N-terminal furylalanine capped with 2-naphthoic acid)”, the “cross-link with streptavidin compared with peptide 5.3” value in the test with streptavidin [3] (same conditions as E1) was “less explicit”. For the same molecule, the “peptide cross-linking with streptavidin” value with streptavidin [3] is given as “cross-linking was observed”.

For the molecule `O=C(O)CCCC[C@@H]1SC[C@@H]2NC(=O)N[C@@H]21` [biotin], the “affinity for streptavidin relative to StrepTagII” value on streptavidin [6] is on record as “much higher affinity”.
